Results from the supplement of paper PMC11451515.

What was measured:
Conditions in all cases: 48 h
NOMO1 [1] = assay: cell viability relative to DMSO control; higher = less cytotoxic
How it was run: (§1)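 Library compounds in DMSO were pin-dosed into 1536-well plates (5 μl) holding NOMO1 or SEM (500 cells/well) or P12-Ichikawa (1000 cells/well) leukemia cells, across an 11-point threefold series of 47 μM to 0.79 nM. Each cell line had been adapted for at least four passages in each medium. CellTiter-Glo One luminescence was read after 48 h at 37°C. Viability is the per-plate percentage relative to DMSO wells, with cell-free wells as background.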

P12-Ichikawa [2] = assay: as above
How it was run: as §1

SEM cells [3] = assay: as above
How it was run: as §1

NOMO1 [4] = assay: AUC of viability dose-response curve (% viability x log10 dose units); higher = less sensitive
How it was run: (§2)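 Leukemia cells adapted to each medium (500 or 1000 cells/well, 1536-well plates) were exposed to library compounds in DMSO for 48 h at 37°C at 11 threefold doses, 47 μM to 0.79 nM. Luminescence by CellTiter-Glo One was normalised per plate to DMSO and cell-free wells, then fitted with a four-parameter log-logistic curve on log10 dose. Curves above full viability were scaled and quality-control failures removed before area under the curve was integrated by trapezoidal rule.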

P12-Ichikawa [5] = assay: as above
How it was run: as §2

SEM cells [6] = assay: as above
How it was run: as §2

N=C(N)NC(=N)N1CCOCC1
cell viability [%]
Conditions | NOMO1 [1] | P12-Ichikawa [2] | SEM cells [3]
HPLM + 10% dialyzed FBS, 0.000781 µM | 102 | 104 | 97.7
HPLM + 10% dialyzed FBS, 0.00234 µM | 84.7 | 108 | 97.2
HPLM + 10% dialyzed FBS, 0.00702 µM | 106 | 107 | 112
HPLM + 10% dialyzed FBS, 0.0211 µM | 103 | 113 | 98
HPLM + 10% dialyzed FBS, 0.0632 µM | 106 | 106 | 99.1
HPLM + 10% dialyzed FBS, 0.19 µM | 111 | 116 | 105
HPLM + 10% dialyzed FBS, 0.569 µM | 111 | 109 | 109
HPLM + 10% dialyzed FBS, 1.71 µM | 103 | 104 | 103
HPLM + 10% dialyzed FBS, 5.12 µM | 103 | 106 | 86.4
HPLM + 10% dialyzed FBS, 15.4 µM | 89.6 | 103 | 98.9
HPLM + 10% dialyzed FBS, 46.1 µM | 87.1 | 108 | 112
RPMI 5 mM glucose + 10% FBS, 0.000781 µM | 95.2 | 103 | 94
RPMI 5 mM glucose + 10% FBS, 0.00234 µM | 93.1 | 98.3 | 94.5
RPMI 5 mM glucose + 10% FBS, 0.00702 µM | 115 | 90.7 | 99.7
RPMI 5 mM glucose + 10% FBS, 0.0211 µM | 101 | 93.2 | 96.2
RPMI 5 mM glucose + 10% FBS, 0.0632 µM | 111 | 97.8 | 105
RPMI 5 mM glucose + 10% FBS, 0.19 µM | 106 | 98.1 | 104
RPMI 5 mM glucose + 10% FBS, 0.569 µM | 102 | 99.7 | 113
RPMI 5 mM glucose + 10% FBS, 1.71 µM | 97.1 | 93.5 | 93.4
RPMI 5 mM glucose + 10% FBS, 5.12 µM | 98.7 | 87.8 | 71.2
RPMI 5 mM glucose + 10% FBS, 15.4 µM | 84.4 | 92.5 | 100
RPMI 5 mM glucose + 10% FBS, 46.1 µM | 87.4 | 92.4 | 106
RPMI 5 mM glucose + 10% dialyzed FBS, 0.000781 µM | 96.4 | 101 | 104
RPMI 5 mM glucose + 10% dialyzed FBS, 0.00234 µM | 93.3 | 105 | 114
RPMI 5 mM glucose + 10% dialyzed FBS, 0.00702 µM | 89.8 | 92.4 | 107
RPMI 5 mM glucose + 10% dialyzed FBS, 0.0211 µM | 88.8 | 102 | 104
RPMI 5 mM glucose + 10% dialyzed FBS, 0.0632 µM | 106 | 109 | 106
RPMI 5 mM glucose + 10% dialyzed FBS, 0.19 µM | 104 | 93.8 | 100
RPMI 5 mM glucose + 10% dialyzed FBS, 0.569 µM | 101 | 99.8 | 111
RPMI 5 mM glucose + 10% dialyzed FBS, 1.71 µM | 87.2 | 96.8 | 93.6
RPMI 5 mM glucose + 10% dialyzed FBS, 5.12 µM | 87.9 | 91.2 | 114
RPMI 5 mM glucose + 10% dialyzed FBS, 15.4 µM | 86 | 86.8 | 92.3
RPMI 5 mM glucose + 10% dialyzed FBS, 46.1 µM | 89.7 | 98.9 | 110

AUC of viability dose-response curve
Conditions | NOMO1 [4] | P12-Ichikawa [5] | SEM cells [6]
HPLM + 10% dialyzed FBS | 465 | 473 | 472
RPMI 5 mM glucose + 10% FBS | 461 | 454 | 467
RPMI 5 mM glucose + 10% dialyzed FBS | 447 | 463 | 460
